# Data reported in patent publication US9492454B2, “Use of pemirolast in the treatment of acute asthma” (RSPR PHARMA AB, priority 2014, dated 2016).
# Entries after “also recorded” stand apart in the source; their conditions may differ. Like-named read-outs stand apart in the source and are kept apart here.
# Columns and labels:
# [1] = design: species or system Beagles (dog); conditions: dog, in vivo
# Text: There were no major differences in kinetics between males and females.
# hERG potassium channel = hERG potassium channel (Homo sapiens, UniProt Q12809)
# Method: This study was performed by PhysioStim, France, a GLP compliant facility.
# The effects of pemirolast on hERG currents in HEK-293 cells stably expressing the hERG potassium channel were studied using patch-clamp technique.
# [2] = Single and multiple-dose open safety, tolerability and pharmacokinetic study of pemirolast potassium tablets, with linear Cmax extrapolation; assay type: in vivo, human; conditions: linear extrapolation from 42.5 mg multiple dose
# Method: This study comprised 18 healthy male subjects, 18-45 years of age, and was a single and multiple-dose, open study assessing the safety and tolerability of pemirolast potassium tablets (10 mg, Ulgixal™ tablets) with the doses 10, 30 and 50 mg (containing 8.5, 25.5 and 42.5 mg pemirolast free acid, respectively) b.i.d. (6 subjects in each dose group). The subjects received a single dose on the first day, then b.i.d. for three days and a single dose on the fifth day. The study was performed at the Berzelius Clinical Research Center AB in Linköping, Sweden. All laboratory pharmacokinetic analyses were performed by Quintiles AB, Uppsala, Sweden. Pharmacokinetic calculations were performed by Pharm Assist Sweden AB, Uppsala, Sweden. Mean Cmax data after multiple dosing are shown in and Table 1, and mean plasma concentrations over time on Day 5 are shown in FIG. 1. Based on these clinical data, Cmax predictions were made (assumption: Linear pharmacokinetics when extrapolating to higher dose levels) and are presented in Table 2.
# [3] = Later pharmacokinetic studies in healthy volunteers (multiple doses); assay type: in vivo, human; conditions: 80, 200 and 320 mg b.i.d. for three and a half days
# human bronchial tissue = experiment: Bronchodilatory effect on pre-contracted isolated human bronchi (myograph, isometric tension); assay type: cell-based; conditions: for effect on bronchoconstriction induced by carbachol: carbachol 3 μM; for effect on bronchoconstriction induced by histamine: histamine 1 μM
# [4] = tested on: asthma patients challenged with mannitol inhalation; experiment: Clinical trial: mannitol challenge test in asthma patients (PD15, FEV1, safety); assay type: in vivo, human; conditions: for long-term prophylactic effect on mannitol-induced asthma (mannitol PD15 at placebo visit): n=4
# Method: This study comprised male and female asthma patients (18 to 46 years of age) with a positive asthma test (as determined by a mannitol challenge test (vide infra) performed within 15 days prior to enrolment at the first screening visit, Visit 1).
# It was a double-blind, randomized, placebo-controlled, cross-over trial assessing the efficacy of orally administered single doses of placebo and 40 mg and 400 mg of pemirolast (immediate release tablets containing pemirolast sodium hemihydrate, as well as microcrystalline cellulose, mannitol, copovidone fine, croscarmellose sodium, anhydrous colloidal silica and magnesium stearate) in patients challenged with mannitol inhalation as described below.
# The patients were exposed to the different treatments at three separate hospital visits at least 2 (mean 6.8, median 6) days apart. The data reported in FIGS. 5 and 6 below represent the patients that received placebo treatment at the first visit (n=8) or placebo at the second visit (after 40 mg at the first visit (n=4) or after 400 mg at the first visit (n=4)).
# All doses were administered 3 hours before initiation of the mannitol challenge test to ensure peak plasma concentrations of pemirolast when the mannitol challenge was performed (blood samples for analysing plasma concentrations of pemirolast were collected 3 hours after drug administration).
# There were 5 visits during the trial: A screening visit (Visit 1, within 15 days before Visit 2), three visits for treatment with Investigational Medicinal Products (IMP; pemirolast 40 or 400 mg, or placebo) (Visit 2-4, spaced at least 2 days apart), and a final follow-up visit by telephone (Visit 5, at least 2, but less than 4 days after Visit 4 and within 30 days of Visit 2).
# The primary endpoint in the study was the Provocation Dose (PD) of mannitol resulting in a 15% fall in Forced Expiratory Volume during 1 second (FEV1; values given in Litres (L)) (PD15 for mannitol), which is recognised by regulatory authorities as an acceptable method to evaluate potential efficacy of asthma drugs (European Medicines Agency. Note for Guidance on Clinical Investigation of Medicinal Products for Treatment of Asthma, 2013).
# The mannitol challenge test (Aridol®, Pharmaxis Ltd, Frenchs Forest, Sydney Australia) was performed as follows: application of nose clip and challenge with 0 (empty capsule acting as placebo), 5, 10, 20, 40, 80, 160, 160, 160 and 160 mg of mannitol via the Halermatic (the 80 and 160 mg doses were given as multiple doses of 40 mg capsules). After inhalation, subjects were instructed to hold their breath for 5 seconds.
# At least 2 repeatable FEV1 manoeuvres were performed 60 seconds after each dose and the highest FEV1 was used in the calculation. […]
# prostaglandin D2 = experiment: Urinary excretion of 11β-PGF2α (PGD2 metabolite, mast cell biomarker), EIA; assay type: in vivo, human; conditions: for baseline production of PGD2 in asthmatics without ongoing attacks: n=22-24
# Method: A secondary endpoint in the study was to analyse changes in urinary excretion of a metabolite (11β-prostaglandin (PG) F2α) of the lung mast cell mediator/biomarker prostaglandin D2. 11β-PGF2α analysis was performed in unextracted urine samples using a validated enzyme immunoassays (EIA) kit from Cayman Chemical, Ann Arbor, Mich., USA (Item no 516521). Absolute values of the mediators were expressed as nanograms 11β-PGF2α per millimole creatinine.
# • a) Withdrawal from trial visit criteria to be checked • b) Urine sampling for 11β-PGF2α analysis • c) Blood sampling for haematology and blood biochemistry • d) Vital signs, physical examination, adverse events and concomitant medication 2) Administration of IMP 3 hours (+/−10 min) before the mannitol challenge 3) Before mannitol challenge: • a) <10 min before: Urine sampling for 11β-PGF2α analysis • b) <10 min before: Blood sampling for analysis of plasma pemirolast concentration 4) Mannitol test 3 hours (+/−10 min) after IMP administration 5) After mannitol challenge: • a) Urine sampling for 11β-PGF2α, 30 minutes after mannitol challenge • b) Pregnancy test (Visit 4 only, in addition to prior to enrolment) • e) Recording of concomitant medication just before sending the patient home • f) Reporting of AEs just before sending the subject home
# Prostaglandin D2 (PGD2) is released from mast cells (e.g. in the lung) and is known as a mediator of asthmatic bronchoconstriction (Hardy et al, N. Engl. J. Med., 311, 209 (1984)). Urinary levels of the PGD2 metabolite 11β-PGF2α increase acutely during asthmatic attacks, including those induced by mannitol inhalation (Brannan et al, Eur. Respir. J., 22, 491 (2003)). This PGD2 metabolite is therefore used as a biomarker for mast cell activation in asthmatics.
# [5] = tested on: antigen- and PAF-induced bronchoconstriction; conditions: pre-administration, guinea pigs in vivo; cited from earlier work
# isolated tracheal muscle = conditions: isolated guinea pig tracheal muscle, cited from earlier work
# [6] = tested on: isolated guinea pig trachea; conditions: trachea pre-constricted with acetylcholine, histamine, serotonin and barium chloride; cited from earlier work
# [7] = twice daily 50 mg doses in humans; cited from earlier work
# Chain of hERG potassium channel (Q12809 whole entry): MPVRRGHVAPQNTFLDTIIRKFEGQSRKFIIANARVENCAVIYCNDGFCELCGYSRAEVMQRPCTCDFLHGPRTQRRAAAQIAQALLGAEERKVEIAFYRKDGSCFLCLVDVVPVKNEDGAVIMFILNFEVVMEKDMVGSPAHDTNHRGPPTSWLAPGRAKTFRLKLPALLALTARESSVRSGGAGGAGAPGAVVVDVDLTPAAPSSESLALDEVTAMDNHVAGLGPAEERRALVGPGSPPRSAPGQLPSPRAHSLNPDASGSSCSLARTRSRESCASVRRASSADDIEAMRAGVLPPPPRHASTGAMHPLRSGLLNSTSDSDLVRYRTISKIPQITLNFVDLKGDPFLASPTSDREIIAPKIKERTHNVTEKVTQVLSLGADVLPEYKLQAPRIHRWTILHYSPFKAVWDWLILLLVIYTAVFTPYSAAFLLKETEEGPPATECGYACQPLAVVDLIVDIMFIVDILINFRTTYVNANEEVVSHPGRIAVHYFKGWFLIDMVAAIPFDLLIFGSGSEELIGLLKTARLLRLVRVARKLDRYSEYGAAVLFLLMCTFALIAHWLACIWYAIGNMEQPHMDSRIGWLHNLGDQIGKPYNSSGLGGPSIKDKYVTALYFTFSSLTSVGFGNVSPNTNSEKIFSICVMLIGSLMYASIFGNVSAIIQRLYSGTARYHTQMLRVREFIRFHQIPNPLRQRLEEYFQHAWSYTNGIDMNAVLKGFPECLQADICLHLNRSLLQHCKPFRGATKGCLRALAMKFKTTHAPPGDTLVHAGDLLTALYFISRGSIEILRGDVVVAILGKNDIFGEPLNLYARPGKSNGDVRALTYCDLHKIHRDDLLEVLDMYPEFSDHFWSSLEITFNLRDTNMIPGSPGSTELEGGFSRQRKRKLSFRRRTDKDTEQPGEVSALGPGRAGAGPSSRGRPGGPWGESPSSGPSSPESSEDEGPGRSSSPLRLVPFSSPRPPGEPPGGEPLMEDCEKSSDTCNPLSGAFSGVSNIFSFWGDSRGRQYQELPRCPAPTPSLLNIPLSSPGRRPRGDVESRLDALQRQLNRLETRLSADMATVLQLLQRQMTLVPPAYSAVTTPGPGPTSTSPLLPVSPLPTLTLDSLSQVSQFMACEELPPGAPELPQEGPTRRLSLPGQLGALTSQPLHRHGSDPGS
compound,measurement,setting,value
Cc1cccn2c(=O)c(-c3nnn[nH]3)cnc12 [pemirolast potassium],safe chronic dose in dogs,[1],75 mg/kg daily
same,decrease of hERG tail current amplitude,hERG potassium channel; 2.7 μg/mL,5.4%
same,decrease of hERG tail current amplitude,hERG potassium channel; 8 μg/mL,10.2%
same,decrease of hERG tail current amplitude,hERG potassium channel; 26.6 μg/mL,14.1%
same,decrease of hERG tail current amplitude,hERG potassium channel; 79.9 μg/mL,19.0%
Cc1cccn2c(=O)c(-c3nnn[nH]3)cnc12 [pemirolast],Predicted Cmax,[2]; predicted for 125 mg,10070 ng/mL
same,Predicted Cmax,[2]; predicted for 200 mg,16120 ng/mL
same,Predicted Cmax,[2]; predicted for 400 mg,32230 ng/mL
same,safety and tolerability,[3],safe and well-tolerated
same,effect on bronchoconstriction induced by U-46619,"human bronchial tissue; 10 μg/mL pemirolast, 100 nM U-46619, n=2",partially reversed
same,effect on bronchoconstriction induced by potassium chloride,"human bronchial tissue; 10 μg/mL pemirolast, KCl 30 mM, n=2",no effect
same,effect on bronchoconstriction induced by carbachol,"human bronchial tissue; 10 μg/mL pemirolast, n=4",no effect
same,effect on bronchoconstriction induced by histamine,"human bronchial tissue; 10 μg/mL pemirolast, n=3",no effect
same,effect on bronchoconstriction induced by leukotriene D4,"human bronchial tissue; 10 μg/mL pemirolast, leukotriene D4 1 nM, n=3",no effect
same,reversal of PGF2α-induced bronchoconstriction (force),"human bronchial tissue; 10 μg/ml pemirolast, PGF2α 3 μM pre-contraction, within 15 min, n=4, vehicle 6.8±3.1%",21.5±4.4%
same,reduction of PGF2α-induced bronchoconstriction (force),"human bronchial tissue; 110 μg/mL pemirolast (cumulative), PGF2α 3 μM pre-contraction, within 40 min, n=4, vehicle 18.6±4.9%",72.0±12.6%
same,effect on bronchoconstriction induced by U-46619,"human bronchial tissue; 110 μg/mL pemirolast, 100 nM U-46619",partial reversal
same,effect on the response to KCl,"human bronchial tissue; 110 μg/mL pemirolast, KCl 30 mM",little effect
same,effect on bronchoconstriction induced by carbachol,human bronchial tissue; 110 μg/mL pemirolast,partial reversal
same,effect on bronchoconstriction induced by histamine,human bronchial tissue; 110 μg/mL pemirolast,partial reversal
same,effect on the response to leukotriene D4,"human bronchial tissue; 110 μg/mL pemirolast, leukotriene D4 1 nM",little effect
same,mannitol PD15,"[4]; 3 hour pre-treatment, oral single dose (pemirolast sodium hemihydrate tablets), asthma patients",increased
same,long-term prophylactic effect on mannitol-induced asthma (mannitol PD15 at placebo visit),[4]; placebo treatment preceded by 40 mg dose p.o.,not seen
same,long-term prophylactic effect on mannitol-induced asthma (mannitol PD15 at placebo visit),[4]; single 400 mg dose p.o. given at least 3 days before placebo/mannitol,resulted in a prophylactic effect; also recorded: tolerated a much higher dose of mannitol
same,"adverse events, vital signs, physical examination, haematology and blood biochemistry","[4]; single oral doses 40 mg and 400 mg, asthma patients",no serious adverse events
same,baseline production of PGD2 in asthmatics without ongoing attacks,prostaglandin D2; 3 hours after administration of 40 mg,not
same,baseline production of PGD2 in asthmatics without ongoing attacks,prostaglandin D2; 3 hours after administration of 400 mg,significantly reduced
same,"urinary levels of the PGD2 biomarker (11β-PGF2α), 400 mg versus 40 mg previous treatment","prostaglandin D2; patients treated at least 3 days before with 40 mg or 400 mg, 4+4 patients",did not differ
same,PAF-induced bronchoconstriction,[5],inhibited
same,antigen-induced bronchoconstriction,[5],inhibited
same,effect on bronchoconstriction,isolated tracheal muscle; much higher concentrations than 10 μg/mL,some effect
same,effect on bronchoconstriction induced by PGF2α,isolated tracheal muscle; pre-treatment at 10 μg/mL,no effect
same,effect on bronchoconstriction induced by leukotriene D4,isolated tracheal muscle; pre-treatment at 10 μg/mL,no effect
same,potency relative to theophylline,[6],one seventh
same,direct bronchodilator activity when used clinically,[7],no direct bronchodilator activity
